# Test results reported in patent US20100076015A1, “Aminopyridine Derivatives” (VANTIA LIMITED, priority 2008, published 2010).
# Target: T1, Human KLK1 (Homo sapiens, UniProt P06870)
# T1 construct: purchased Callbiochem (Calbiochem)
# Assay: Determination of the IC50 for KLK1 (fluorogenic substrate H-DVal-Leu-Arg-AFC)
# Assay type: biochemical
# Conditions: 37° C.
# Procedure, shortened: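 hKLK1 + H-DVal-Leu-Arg-AFC, 37° C, varied cpd conc. Initial rate by A410 change → residual activity → IC50.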
# T1 sequence (P06870 25-262): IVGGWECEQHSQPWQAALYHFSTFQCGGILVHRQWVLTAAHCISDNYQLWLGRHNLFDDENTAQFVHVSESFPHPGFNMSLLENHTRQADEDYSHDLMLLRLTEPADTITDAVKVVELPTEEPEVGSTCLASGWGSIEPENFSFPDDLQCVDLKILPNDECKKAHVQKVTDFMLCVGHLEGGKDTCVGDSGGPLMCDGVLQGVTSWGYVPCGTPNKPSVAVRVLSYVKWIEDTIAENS
row,Compound,IC50 [nM]
1,"Nc1ccc(CNC(=O)[C@H](Cc2ccc(Cl)c(Cl)c2)NC(=O)CN2CCCCC2)cn1 [Example 404, (S)—N-(6-Amino-pyridin-3-ylmethyl)-3-(3,4-dichloro-phenyl)-2-(2-piperidin-1-yl-acetylamino)-propionamide]",33.4
2,"CCC(C)[C@H](C(=O)N[C@@H](Cc1cccc(Cl)c1)C(=O)NCc1ccc(N)nc1)N(C)C (stereo partly drawn) [Example 405, (R)-2-Dimethylamino-3-methyl-pentanoic acid [(S)-1-[(6-amino-pyridin-3-ylmethyl)-carbamoyl]-2-(3-chloro-phenyl)-ethyl]-amide]",7.1
3,"CC(C)[C@H](C(=O)N[C@@H](Cc1cccc(Cl)c1)C(=O)NCc1ccc(N)nc1)N(C)C [Example 406, (R)—N-[(S)-1-[(6-Amino-pyridin-3-ylmethyl)-carbamoyl]-2-(3-chloro-phenyl)-ethyl]-2-dimethylamino-3-methyl-butyramide]",4.7
4,"CN(C)C(Cc1ccccc1)C(=O)NC(Cc1cccc(Cl)c1)C(=O)NCc1ccc(N)nc1 [Example 407, (R)—N-[(S)-1-[6-Amino-pyridin-3-ylmethyl)-carbamoyl]-2-(3-chloro-phenyl)-ethyl]-2-dimethylamino-3-phenyl-propionamide]",17
5,"CCN(C)C(C)C(=O)NC(Cc1cccc(Cl)c1)C(=O)NCc1ccc(N)nc1 [Example 408, (S)—N-[(S)-1-[6-Amino-pyridin-3-ylmethyl)-carbamoyl]-2-(3-chloro-phenyl)-ethyl]-2-(ethyl-methyl-amino)-propionamide]",4.8
6,"CC(C)N(C)C(C)C(=O)NC(Cc1cccc(Cl)c1)C(=O)NCc1ccc(N)nc1 [Example 409, (S)—N-[(S)-1-[6-Amino-pyridin-3-ylmethyl)-carbamoyl]-2-(3-chloro-phenyl)-ethyl]-2-(isopropyl-methyl-amino)-propionamide]",0.63
7,"CCN(CC)[C@@H](C)C(=O)N[C@@H](Cc1cccc(Cl)c1)C(=O)NCc1ccc(N)nc1 [Example 410, (S)—N-[(S)-1-[(6-Amino-pyridin-3-ylmethyl)-carbamoyl]-2-(3-chloro-phenyl)-ethyl]-2-diethylamino-propionamide]",2.6
8,"CC(C(=O)N[C@@H](Cc1cccc(Cl)c1)C(=O)NCc1ccc(N)nc1)N1CCCCC1 (stereo partly drawn) [Example 411, N-[(S)-1-[(6-Amino-pyridin-3-ylmethyl)-carbamoyl]-2-(3-chloro-phenyl)-ethyl]-2-piperidin-1-yl-propionamide]",12.7
9,"Nc1ccc(CNC(=O)[C@H](Cc2cccc(Cl)c2)NC(=O)CN2CCCCC2)cn1 [Example 412, (S)—N-(6-Amino-pyridin-3-ylmethyl)-3-(3-chloro-phenyl)-2-(2-piperidin-1-yl-acetylamino)-propionamide]",9.3
10,"CCN(C)[C@@H](C)C(=O)N[C@@H](Cc1cccc(C)c1)C(=O)NCc1ccc(N)nc1 [Example 413, (S)—N-{(S)-1-[(6-Amino-pyridin-3-ylmethyl)-carbamoyl]-2-m-tolyl-ethyl}-2-(ethyl-methyl-amino)-propionamide]",7.9
11,"Cc1cccc(C[C@H](NC(=O)[C@H](C)N(C)C(C)C)C(=O)NCc2ccc(N)nc2)c1 [Example 414, (S)—N-{(S)-1-[(6-Amino-pyridin-3-ylmethyl)-carbamoyl]-2-m-tolyl-ethyl}-2-(isopropyl-methyl-amino)-propionamide]",0.77
12,"CCN(CC)[C@@H](C)C(=O)N[C@@H](Cc1cccc(C)c1)C(=O)NCc1ccc(N)nc1 [Example 415, (S)—N-{(S)-1-[(6-Amino-pyridin-3-ylmethyl)-carbamoyl]-2-m-tolyl-ethyl}-2-diethylamino-propionamide]",5.3
13,"CCN(C)[C@@H](C)C(=O)N[C@@H](Cc1cccc(C(F)(F)F)c1)C(=O)NCc1ccc(N)nc1 [Example 416, (S)—N-[(S)-1-[(6-Amino-pyridin-3-ylmethyl)-carbamoyl]-2-(3-trifluoromethyl-phenyl)-ethyl]-2-(ethyl-methyl-amino)-propionamide]",6.2
14,"CC(C)N(C)[C@@H](C)C(=O)N[C@@H](Cc1cccc(C(F)(F)F)c1)C(=O)NCc1ccc(N)nc1 [Example 417, (S)—N-[(S)-1-[(6-Amino-pyridin-3-ylmethyl)-carbamoyl]-2-(3-trifluoromethyl-phenyl)-ethyl]-2-(isopropyl-methyl-amino)-propionamide]",0.83
15,"CCN(CC)[C@@H](C)C(=O)N[C@@H](Cc1cccc(C(F)(F)F)c1)C(=O)NCc1ccc(N)nc1 [Example 418, (S)—N-[(S)-1-[(6-Amino-pyridin-3-ylmethyl)-carbamoyl]-2-(3-trifluoromethyl-phenyl)-ethyl]-2-diethylamino-propionamide]",2
16,"CC(C(=O)N[C@@H](Cc1cccc(C(F)(F)F)c1)C(=O)NCc1ccc(N)nc1)N1CCCCC1 (stereo partly drawn) [Example 419, N-[(S)-1-[(6-Amino-pyridin-3-ylmethyl)-carbamoyl]-2-(3-trifluoromethyl-phenyl)-ethyl]-2-piperidin-1-yl-propionamide]",16.3
17,"Nc1ccc(CNC(=O)[C@H](Cc2cccc(C(F)(F)F)c2)NC(=O)CN2CCCCC2)cn1 [Example 420, (S)—N-(6-Amino-pyridin-3-ylmethyl)-2-(2-piperidin-1-yl-acetylamino)-3-(3-trifluoromethyl-phenyl)-propionamide]",117
18,"C[C@H](C(=O)N[C@@H](Cc1ccc(C(F)(F)F)cc1)C(=O)NCc1ccc(N)nc1)N1CCCCC1 [Example 421, (R)—N-[(S)-1-[(6-Amino-pyridin-3-ylmethyl)-carbamoyl]-2-(4-trifluoromethyl-phenyl)-ethyl]-2-piperidin-1-yl-propionamide]",67.4
19,"C[C@@H](C(=O)N[C@@H](Cc1ccc(C(F)(F)F)cc1)C(=O)NCc1ccc(N)nc1)N1CCCCC1 [Example 422, (S)—N-[(S)-1-[(6-Amino-pyridin-3-ylmethyl)-carbamoyl]-2-(4-trifluoromethyl-phenyl)-ethyl]-2-piperidin-1-yl-propionamide]",3
20,"Nc1ccc(CNC(=O)[C@H](Cc2ccc(C(F)(F)F)cc2)NC(=O)CN2CCCCC2)cn1 [Example 423, (S)—N-(6-Amino-pyridin-3-ylmethyl)-2-(2-piperidin-1-yl-acetylamino)-3-(4-trifluoromethyl-phenyl)-propionamide]",129

# Results, then the compound that gave them:
row,IC50 [nM],Compound
1,28,"CCC(C)[C@H](C(=O)N[C@@H](Cc1cc(F)cc(F)c1)C(=O)NCc1ccc(N)nc1)N(C)C (stereo partly drawn) [Example 424, (R)-2-Dimethylamino-3-methyl-pentanoic acid [(S)-1-[(6-amino-pyridin-3-ylmethyl)-carbamoyl]-2-(3,5-difluoro-phenyl)-ethyl]-amide]"
2,14.9,"CC(C(=O)N[C@@H](Cc1cc(F)cc(F)c1)C(=O)NCc1ccc(N)nc1)N1CCCCC1 (stereo partly drawn) [Example 425, N-[(S)-1-[(6-Amino-pyridin-3-ylmethyl)-carbamoyl]-2-(3,5-difluoro-phenyl)-ethyl]-2-piperidin-1-yl-propionamide]"
3,2.7,"CC1CCCC(C)N1CC(=O)N[C@@H](Cc1ccc(Cl)cc1)C(=O)NCc1ccc(N)nc1 (stereo partly drawn) [Example 426, (S)—N-(6-Amino-pyridin-3-ylmethyl)-3-(4-chloro-phenyl)-2-[2-(2,6-dimethyl-piperidin-1-yl)-acetylamino]-propionamide]"
4,106,"CC(C)C[C@H](NC(=O)[C@H](C)N(C)C(C)C)C(=O)NCc1ccc(N)nc1 [Example 427, (S)-2-[(S)-2-(Isopropyl-methyl-amino)-propionylamino]-4-methyl-pentanoic acid (6-amino-pyridin-3-ylmethyl)-amide]"
5,9.9,"CCN(CC)CC(=O)N[C@@H](Cc1ccc(F)cc1)C(=O)NCc1ccc(N)nc1C [Example 428, (S)—N-(6-Amino-2-methyl-pyridin-3-ylmethyl)-2-(2-diethylamino-acetylamino)-3-(4-fluoro-phenyl)-propionamide]"
6,1.7,"Cc1nc(N)ccc1CNC(=O)[C@H](Cc1ccc(F)c(F)c1)NC(=O)CN1C(C)CCCC1C (stereo partly drawn) [Example 429, (S)—N-(6-Amino-2-methyl-pyridin-3-ylmethyl)-3-(3,4-difluoro-phenyl)-2-[2-(2,6-dimethyl-piperidin-1-yl)-acetylamino]-propionamide]"
7,59.8,"Cc1nc(N)ccc1CNC(=O)[C@H](Cc1ccc(F)c(F)c1)NC(=O)CN1CCCCC1 [Example 430, (S)—N-(6-Amino-2-methyl-pyridin-3-ylmethyl)-3-(3,4-difluoro-phenyl)-2-(2-piperidin-1-yl-acetylamino)-propionamide]"
8,50.6,"Cc1nc(N)ccc1CNC(=O)[C@H](Cc1ccc(F)c(F)c1)NC(=O)[C@@H](C)N1CCCCC1 [Example 431, (R)—N-[(S)-1-[(6-Amino-2-methyl-pyridin-3-ylmethyl)-carbamoyl]-2-(3,4-difluoro-phenyl)-ethyl]-2-piperidin-1-yl-propionamide]"
9,17,"Cc1nc(N)ccc1CNC(=O)[C@H](Cc1ccc(F)c(F)c1)NC(=O)[C@H](C)N1CCCCC1 [Example 432, (S)—N-[(S)-1-[(6-Amino-2-methyl-pyridin-3-ylmethyl)-carbamoyl]-2-(3,4-difluoro-phenyl)-ethyl]-2-piperidin-1-yl-propionamide]"
10,100,"CC(C)N(C)[C@@H](C)C(=O)N[C@@H](C(=O)NCc1ccc(N)nc1)C(C1CCCCC1)C1CCCCC1 [Example 433, (S)—N-{(R)-1-[(6-Amino-pyridin-3-ylmethyl)-carbamoyl]-2,2-dicyclohexyl-ethyl}-2-(isopropyl-methyl-amino)-propionamide]"
11,5,"CC(C)N(C)[C@@H](C)C(=O)N[C@@H](C(=O)NCc1ccc(N)nc1)C(O)C1CCCCC1 (stereo partly drawn) [Example 435, (S)—N-{(R)-1-[(6-Amino-pyridin-3-ylmethyl)-carbamoyl]-2-cyclohexyl-2-hydroxy-ethyl}-2-(isopropyl-methyl-amino)-propionamide]"
12,3.6,"CC(C1CCCCC1)[C@@H](NC(=O)[C@H](C)N(C)C(C)C)C(=O)NCc1ccc(N)nc1 (stereo partly drawn) [Example 436, (R)—N-(6-Amino-pyridin-3-ylmethyl)-3-cyclohexyl-2-[(S)-2-(isopropyl-methyl-amino)-propionylamino]-butyramide]"
